Species on record: Rattus norvegicus
Assay: Open TG-GATES - Regimen: Daily Repeat
Format: toxicity, organism-based, Sprague-Dawley
Design: regimen Daily Repeat, gender Male, age 6 weeks
Conditions: in vivo, po, 50 mg/kg, route gavage, dose level Low; for APTT / Bas / Eos / Fbg / Hb / Ht / Lym / MCH / MCHC / MCV / Mono / Neu / PT / Plat / RBC / Ret / WBC: tissue Blood; for KIDNEY_L / KIDNEY_R / KIDNEY_TOTAL: tissue Kidney; for LIVER: tissue Liver; for A/G / ALP / ALT / AST / BUN / CRE / Ca / Cl / DBIL / GLC / IP / K / LDH / Na / PL / RALB / TBIL / TC / TG / TP / gamma-GTP: tissue Plasma

Structure (SMILES): CN1C(=O)CCS(=O)(=O)C1c1ccc(Cl)cc1 (configuration not stated) [CHLORMEZANONE]
- TERMINAL_BW (72 h, time 3 day): 226.8 g
- APTT (72 h, time 3 day): 15.5 s
- Bas (72 h, time 3 day): 0%
- Eos (72 h, time 3 day): 1%
- Fbg (72 h, time 3 day): 275.6 mg/dL
- Hb (72 h, time 3 day): 13.5 g/dL
- Ht (72 h, time 3 day): 40.1%
- Lym (72 h, time 3 day): 75.2%
- MCH (72 h, time 3 day): 22 pg
- MCHC (72 h, time 3 day): 33.8%
- MCV (72 h, time 3 day): 65.1 fL
- Mono (72 h, time 3 day): 2.8%
- Neu (72 h, time 3 day): 20.6%
- PT (72 h, time 3 day): 12 s
- Plat (72 h, time 3 day): 108.6 x10_4/uL
- RBC (72 h, time 3 day): 616.2 x10_4/ul
- Ret (72 h, time 3 day): 6.5%
- WBC (72 h, time 3 day): 81.9 x10_2/uL
- KIDNEY_L (72 h, time 3 day): 0.9 g
- KIDNEY_R (72 h, time 3 day): 0.9 g
- KIDNEY_TOTAL (72 h, time 3 day): 1.8 g
- LIVER (72 h, time 3 day): 11.1 g
- A/G (72 h, time 3 day): 0.9
- ALP (72 h, time 3 day): 1849 IU/L
- ALT (72 h, time 3 day): 50.8 IU/L
- AST (72 h, time 3 day): 75.8 IU/L
- BUN (72 h, time 3 day): 15.6 mg/dL
- CRE (72 h, time 3 day): 0.2 mg/dL
- Ca (72 h, time 3 day): 11 mg/dL
- Cl (72 h, time 3 day): 107.2 meq/L
- DBIL (72 h, time 3 day): 0.012 mg/dL
- GLC (72 h, time 3 day): 188.8 mg/dL
- IP (72 h, time 3 day): 7.5 mg/dL
- K (72 h, time 3 day): 4.3 meq/L
- LDH (72 h, time 3 day): 64.8 IU/L
- Na (72 h, time 3 day): 143.8 meq/L
- PL (72 h, time 3 day): 136.4 mg/dL
- RALB (72 h, time 3 day): 2.7 g/dL
- TBIL (72 h, time 3 day): 0.024 mg/dL
- TC (72 h, time 3 day): 78.4 mg/dL
- TG (72 h, time 3 day): 73.2 mg/dL
- TP (72 h, time 3 day): 5.8 g/dL
- gamma-GTP (72 h, time 3 day): 1 IU/L
- TERMINAL_BW ([…], time 7 day): 270.7 g
- TERMINAL_BW ([…], time 14 day): 321.2 g
- TERMINAL_BW ([…], time 28 day): 415.3 g
- APTT ([…], time 7 day): 18.3 s
- Bas ([…], time 7 day): 0%
- Eos ([…], time 7 day): 0.8%
- Fbg ([…], time 7 day): 275.8 mg/dL
- Hb ([…], time 7 day): 13.2 g/dL
- Ht ([…], time 7 day): 39.2%
- Lym ([…], time 7 day): 79.2%
- MCH ([…], time 7 day): 20.7 pg
- MCHC ([…], time 7 day): 33.7%
- MCV ([…], time 7 day): 61.4 fL
- Mono ([…], time 7 day): 3%
- Neu ([…], time 7 day): 16.2%
- PT ([…], time 7 day): 11.8 s
- Plat ([…], time 7 day): 118.3 x10_4/uL
- RBC ([…], time 7 day): 639.2 x10_4/ul
- Ret ([…], time 7 day): 6.4%
- WBC ([…], time 7 day): 84.5 x10_2/uL
- APTT ([…], time 14 day): 16.3 s
- Bas ([…], time 14 day): 0%
- Eos ([…], time 14 day): 0.8%
- Fbg ([…], time 14 day): 282.2 mg/dL
- Hb ([…], time 14 day): 14.6 g/dL
- Ht ([…], time 14 day): 42.3%
- Lym ([…], time 14 day): 83.4%
- MCH ([…], time 14 day): 20.9 pg
- MCHC ([…], time 14 day): 34.6%
- MCV ([…], time 14 day): 60.3 fL
- Mono ([…], time 14 day): 1.6%
- Neu ([…], time 14 day): 13.6%
- PT ([…], time 14 day): 11.7 s
- Plat ([…], time 14 day): 118.8 x10_4/uL
- RBC ([…], time 14 day): 700.4 x10_4/ul
- Ret ([…], time 14 day): 4.7%
- WBC ([…], time 14 day): 92.5 x10_2/uL
- APTT ([…], time 28 day): 17.5 s
- Bas ([…], time 28 day): 0%
- Eos ([…], time 28 day): 1.2%
- Fbg ([…], time 28 day): 274.6 mg/dL
- Hb ([…], time 28 day): 15.1 g/dL
- Ht ([…], time 28 day): 43%
- Lym ([…], time 28 day): 77.6%
- MCH ([…], time 28 day): 19.7 pg
- MCHC ([…], time 28 day): 35.1%
- MCV ([…], time 28 day): 56.2 fL
- Mono ([…], time 28 day): 2.4%
- Neu ([…], time 28 day): 18.6%
- PT ([…], time 28 day): 11.7 s
- Plat ([…], time 28 day): 106.6 x10_4/uL
- RBC ([…], time 28 day): 765 x10_4/ul
- Ret ([…], time 28 day): 2.5%
- WBC ([…], time 28 day): 77 x10_2/uL
- KIDNEY_L ([…], time 7 day): 1.1 g
- KIDNEY_R ([…], time 7 day): 1.1 g
- KIDNEY_TOTAL ([…], time 7 day): 2.1 g
- KIDNEY_L ([…], time 14 day): 1.2 g
- KIDNEY_R ([…], time 14 day): 1.2 g
- KIDNEY_TOTAL ([…], time 14 day): 2.4 g
- KIDNEY_L ([…], time 28 day): 1.3 g
- KIDNEY_R ([…], time 28 day): 1.3 g
- KIDNEY_TOTAL ([…], time 28 day): 2.7 g
- LIVER ([…], time 7 day): 13.8 g
- LIVER ([…], time 14 day): 16.1 g
- LIVER ([…], time 28 day): 17.9 g
- A/G ([…], time 7 day): 0.9
- ALP ([…], time 7 day): 1690.2 IU/L
- ALT ([…], time 7 day): 50 IU/L
- AST ([…], time 7 day): 68.4 IU/L
- BUN ([…], time 7 day): 17.8 mg/dL
- CRE ([…], time 7 day): 0.2 mg/dL
- Ca ([…], time 7 day): 11.5 mg/dL
- Cl ([…], time 7 day): 106.4 meq/L
- DBIL ([…], time 7 day): 0.016 mg/dL
- GLC ([…], time 7 day): 183.8 mg/dL
- IP ([…], time 7 day): 7.2 mg/dL
- K ([…], time 7 day): 4.4 meq/L
- LDH ([…], time 7 day): 74.2 IU/L
- Na ([…], time 7 day): 143.4 meq/L
- PL ([…], time 7 day): 150.8 mg/dL
- RALB ([…], time 7 day): 2.8 g/dL
- TBIL ([…], time 7 day): 0.028 mg/dL
- TC ([…], time 7 day): 84.2 mg/dL
- TG ([…], time 7 day): 75.2 mg/dL
- TP ([…], time 7 day): 6 g/dL
- gamma-GTP ([…], time 7 day): 1 IU/L
- A/G ([…], time 14 day): 0.9
- ALP ([…], time 14 day): 1402 IU/L
- ALT ([…], time 14 day): 41 IU/L
- AST ([…], time 14 day): 61 IU/L
- BUN ([…], time 14 day): 14.2 mg/dL
- CRE ([…], time 14 day): 0.2 mg/dL
- Ca ([…], time 14 day): 11.3 mg/dL
- Cl ([…], time 14 day): 106.8 meq/L
- DBIL ([…], time 14 day): 0.008 mg/dL
- GLC ([…], time 14 day): 180.4 mg/dL
- IP ([…], time 14 day): 6.9 mg/dL
- K ([…], time 14 day): 4.1 meq/L
- LDH ([…], time 14 day): 65.8 IU/L
- Na ([…], time 14 day): 143.6 meq/L
- PL ([…], time 14 day): 140.8 mg/dL
- RALB ([…], time 14 day): 2.8 g/dL
- TBIL ([…], time 14 day): 0.056 mg/dL
- TC ([…], time 14 day): 83 mg/dL
- TG ([…], time 14 day): 87.6 mg/dL
- TP ([…], time 14 day): 6.1 g/dL
- gamma-GTP ([…], time 14 day): 1 IU/L
- A/G ([…], time 28 day): 0.8
- ALP ([…], time 28 day): 1043 IU/L
- ALT ([…], time 28 day): 40.6 IU/L
- AST ([…], time 28 day): 60 IU/L
- BUN ([…], time 28 day): 15.4 mg/dL
- CRE ([…], time 28 day): 0.3 mg/dL
- Ca ([…], time 28 day): 10.6 mg/dL
- Cl ([…], time 28 day): 106.6 meq/L
- DBIL ([…], time 28 day): 0.01 mg/dL
- GLC ([…], time 28 day): 176.6 mg/dL
- IP ([…], time 28 day): 5.8 mg/dL
- K ([…], time 28 day): 4.2 meq/L
- LDH ([…], time 28 day): 53 IU/L
- Na ([…], time 28 day): 142.8 meq/L
- PL ([…], time 28 day): 137.4 mg/dL
- RALB ([…], time 28 day): 2.8 g/dL
- TBIL ([…], time 28 day): 0.06 mg/dL
- TC ([…], time 28 day): 71.2 mg/dL
- TG ([…], time 28 day): 117 mg/dL
- TP ([…], time 28 day): 6.3 g/dL
- gamma-GTP ([…], time 28 day): 1 IU/L
